In patent US7629346B2, “Pyrazinecarboxamide derivatives as CB1 antagonists” (Hoffmann-La Roche Inc., priority 2006, dated 2009):
Like-named read-outs stand apart in the source and are kept apart here. Values belong to the molecule of their own block, whether it stands above or below them.

Key:
[1] = target: T1, human cannabis CB1 receptor (Homo sapiens, UniProt P21554); experiment: Affinity for cannabinoid CB1 receptors, [3H]-CP-55,940 radioligand binding on HEK cell membranes
T1 construct: expressed in transfected cells; host or cells: human embryonic kidney (HEK) cells, Semliki Forest Virus system, membrane preparation
T1 sequence (P21554 whole entry): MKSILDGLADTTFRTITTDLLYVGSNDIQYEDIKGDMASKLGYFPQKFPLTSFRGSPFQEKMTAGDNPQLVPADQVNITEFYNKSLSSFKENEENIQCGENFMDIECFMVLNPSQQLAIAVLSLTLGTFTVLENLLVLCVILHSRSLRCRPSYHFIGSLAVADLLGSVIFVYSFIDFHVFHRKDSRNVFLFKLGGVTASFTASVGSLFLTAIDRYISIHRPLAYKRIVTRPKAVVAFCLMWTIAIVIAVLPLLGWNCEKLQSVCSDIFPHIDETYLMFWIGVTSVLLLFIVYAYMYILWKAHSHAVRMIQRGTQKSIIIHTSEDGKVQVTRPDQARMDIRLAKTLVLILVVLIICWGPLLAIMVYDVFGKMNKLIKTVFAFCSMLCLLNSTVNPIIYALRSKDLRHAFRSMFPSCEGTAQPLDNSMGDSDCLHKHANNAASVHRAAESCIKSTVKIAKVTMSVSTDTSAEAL
Procedure: The affinity of the compounds of the invention for cannabinoid CB1 receptors was determined using membrane preparations of human embryonic kidney (HEK) cells in which the human cannabis CB1 receptor is transiently transfected using the Semliki Forest Virus system in conjunction with [3H]-CP-55,940 as radioligand. After incubation of a freshly prepared cell membrane preparation with the [3H]-ligand, with or without addition of compounds of the invention, separation of bound and free ligand was performed by filtration over glassfiber filters. Radioactivity on the filter was measured by liquid scintillation counting.
The compounds of formula (I) show an excellent affinity for the CB1 receptor, determined with the experimental conditions described in Devane et. al. Mol. Pharmacol. 34 (1988) 605-613.

[2] = wild-type versus CB1 knockout mice; cited from earlier work
[3] = 10 and 20 mg daily; cited from earlier work
[4] = several phase III studies; cited from earlier work
[5] = phase III trial STRATUS-US; cited from earlier work
[6] = [3H]-CP-55,940 as radioligand, membranes of HEK cells transfected with human CB1 receptor, read-out: Ki

SMILES: COCCOc1ncc(C(=O)NC[C@](C)(O)C2CC2)nc1-c1ccc(Cl)cc1 [Example 27, 6-(4-Chloro-phenyl)-5-(2-methoxy-ethoxy)-pyrazine-2-carboxylic acid ((R)-2-cyclopropyl-2-hydroxy-propyl)-amide]
Ki [1]: 47.5 nM

Ki [1, 6]: 35.4 nM
SMILES: CN(c1ncc(C(=O)N[C@@H]2CCCC[C@H]2O)nc1-c1ccc(OC(F)(F)F)cc1)C1CC1 [Example 21, 5-(Cyclopropyl-methyl-amino)-6-(4-trifluoromethoxy-phenyl)-pyrazine-2-carboxylic acid ((1R,2R)-2-hydroxy-cyclohexyl)-amide]

Ki [1, 6]: 12.2 nM
SMILES: C[C@](O)(CNC(=O)c1cnc(OCc2ncccn2)c(-c2ccc(F)cc2)n1)C1CC1 [Example 69, 6-(4-Fluoro-phenyl)-5-(pyrimidin-2-ylmethoxy)-pyrazine-2-carboxylic acid ((R)-2-cyclopropyl-2-hydroxy-propyl)-amide]

SMILES: Cc1c(C(=O)NN2CCCCC2)nn(-c2ccc(Cl)cc2Cl)c1-c1ccc(Cl)cc1 [SR 141716, Rimonabant]
food intake [2]: reduces food intake in wild-type but not knockout mice
body weight compared to placebo [3]: significantly reduced body weight
body weight, waist circumference and metabolic parameters (plasma HDL, triglycerides and insulin sensitivity) [4]: reduced body weight, waist circumference and improved metabolic parameters
efficacy for smoking cessation [5]: has shown efficacy
